The source of these data is patent publication US8455522B2, “Benzoxazolone derivatives as aldosterone synthase inhibitors” (Novartis AG, priority 2009, dated 2013).

Test [1] concerns the target T1, CYP11B1 (Homo sapiens, UniProt P15538).
T1 construct: the NCI-H295R cells have Cyp11 B1 (steroid 11 β-hydroxylase); host or cells: NCI-H295R
T1 sequence (P15538 25-503): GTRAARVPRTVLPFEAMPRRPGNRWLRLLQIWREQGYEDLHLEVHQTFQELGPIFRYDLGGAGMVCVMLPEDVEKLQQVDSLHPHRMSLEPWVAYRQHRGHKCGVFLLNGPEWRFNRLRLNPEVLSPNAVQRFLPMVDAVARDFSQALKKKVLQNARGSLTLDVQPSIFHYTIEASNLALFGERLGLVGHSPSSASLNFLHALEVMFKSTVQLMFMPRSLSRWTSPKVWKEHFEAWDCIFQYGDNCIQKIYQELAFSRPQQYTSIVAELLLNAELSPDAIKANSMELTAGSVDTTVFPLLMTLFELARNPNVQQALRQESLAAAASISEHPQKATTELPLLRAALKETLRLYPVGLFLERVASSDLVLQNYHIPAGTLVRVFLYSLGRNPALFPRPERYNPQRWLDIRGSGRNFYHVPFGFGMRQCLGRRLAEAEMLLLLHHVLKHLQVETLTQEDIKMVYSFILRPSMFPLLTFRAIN
The experiment in a line: Cortisol cell secretion in NCI-H295R cells (CYP11B1 activity). The format is cell-based. To be noted: compound at 1 μM; for inhibition at 1 µM: NCI-H295R, read-out: Cortisol cell secretion (% Inhib. @ 1 μM). An excerpt: The in vitro inhibitory activities for CYP1B1 can be determined by the following assay.
The cell line NCI-H295R was originally isolated from an adrenocortical carcinoma and has been characterized in the literature through the stimulable secretion of steroid hormones and the presence of the enzymes essential for steroidogenesis. Thus, the NCI-H295R cells have Cyp11 B1 (steroid 11 β-hydroxylase). The cells show the physiological property of zonally undifferentiated human foetal adrenocortical cells which, however, have the capacity to produce the steroid hormones which are formed in the three, phenotypically distinguishable zones in the adult adrenal cortex.
The NCI-H295R cells (American Type Culture Collection, ATCC, Rockville, Md., USA) are grown in Dulbeoco's Modified Eagle'Ham F-12 Medium (DME/F12), which has been supplemented with Ulroser SF Serum (Soprachem, Geigy-Saint-Christophe, France), insulin, transferrin, selenite (I-T-S, Becton Dickinson Biosiences, Franklin lakes. NJ, USA) and antibiotics in 75 cm^2 cell culture vessels at 37° C. and in a 95% air-5% carbon dioxide atmosphere. The cells are subsequently transferred for colony formation into a 24-well incubation vessel. They are cultivated there in DME/F12 medium, which is now supplemented with 0.1% bovine serum instead of Ultroser SF for 24 hours. The experiment is initiated by cultivating the cells in DME/F12 medium which is supplemented with 0.1% bovine serum albumin and test compound, in the presence or absence of cell stimulants, for 72 hours. The test substance is added in a concentration range from 0.2 nanomolar to […]. Cell stimulants which can be used are angiotensin II (1 D or 100 nanomolar), potassium ions (16 millimolar), forskolin (10 micromolar) or a combination of two stimulants.
The excretion of aldosterone, cortisol, corticosterone and estradiol/estrone into the culture medium can be detected and quantified by commercially available, specific monoclonal antibodies in radioimmunoassays in accordance with the manufacturer's instructions.
(§1) Inhibition of the release of certain steroids can be used as a measure of the respective enzyme inhibition by the added test compounds. The dose-dependent inhibition of enzymic activity by a compound is calculated by means of an inhibition plot which is characterized by an IC50.
The inhibition activity of cortisol production (CYP11B1 activity) can also be expressed in percentage inhibition (% inhibition) at a given concentration (e.g. % inhibition at 1 μM), which is the cortisol level when cell is treated with the given concentration of a compound of the invention (e.g. concentration of 1 μM) versus the cortisol excretion when cell is free of the compound of the invention. % inhibition cortisol production=[(Y′−X′)/Y′]×100 wherein X′ is the level of cortisol when the cell is treated with a compound of Formula I; and Y′ is the level of cortisol when the cell is free of compound of Formula I.

Test [2] has as its target T2, aldosterone synthase (Homo sapiens, UniProt P19099).
T2 construct: host or cells: NCI-H295R
T2 sequence (P19099 25-503): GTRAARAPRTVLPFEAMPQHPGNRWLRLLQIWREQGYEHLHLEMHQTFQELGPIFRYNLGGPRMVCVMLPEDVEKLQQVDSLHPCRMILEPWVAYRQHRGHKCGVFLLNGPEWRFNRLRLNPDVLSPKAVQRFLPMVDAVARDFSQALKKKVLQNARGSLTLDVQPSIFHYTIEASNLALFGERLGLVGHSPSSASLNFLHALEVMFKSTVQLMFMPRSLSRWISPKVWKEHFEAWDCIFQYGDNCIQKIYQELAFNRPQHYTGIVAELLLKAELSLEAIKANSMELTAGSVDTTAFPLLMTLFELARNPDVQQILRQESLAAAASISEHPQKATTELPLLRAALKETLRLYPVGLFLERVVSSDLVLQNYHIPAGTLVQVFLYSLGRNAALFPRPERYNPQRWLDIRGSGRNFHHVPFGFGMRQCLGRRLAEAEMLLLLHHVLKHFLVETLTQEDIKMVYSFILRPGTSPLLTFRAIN
The experiment in a line: Aldosterone cell secretion in NCI-H295R cells (aldosterone synthase inhibition, SPA). The format is cell-based. To be noted: human adrenocortical carcinoma NCI-H295R cells, 1 μM Ang II, 24 hr.
From the text: In particular, the aldosterone synthase inhibitory activities in vitro can be determined by the following assay.
Human adrenocortical carcinoma NCI-H295R cell line was obtained from American Type Culture Collection (Manassas, Va.). Insulin/transferrin/selenium (ITS)-A supplement (100×). DMEM/F-12, antibiotic/antimycotic (100×), and fetal bovine serum (FBS) were purchased from Invitrogen (Carlsbad, Calif.). Anti-mouse PVT scintillation proximity assay (SPA) beads and NBS 96-well plates were obtained from GE Health Sciences (Piscataway, N.J.) and Corning (Acton, Mass.), respectively. Solid black 96-well flat bottom plates were purchased from Costar (Corning, N.Y.). Aldosterone and angiotensin (Ang II) were purchased from Sigma (St. Louis, Mo.). D-[1,2,6,7-^3H(N)]aldosterone was acquired from PerkinElmer (Boston, Mass.). Nu-serum was a product of BD Biosciences (Franklin Lakes, N.J.). The NADPH regenerating system, dibenzylfluorescein (DBF), and human aromatase Supersomes® were obtained from Gentest (Woburn, Mass.).
For in vitro measurement of aldosterone activity, human adrenocortical carcinoma NCI-H295R cells are seeded in NBS 96-well plates at a density of 25,000 cells/well in 100 μl of a growth medium containing DMEM/F12 supplemented with 10% FCS, 2.5% Nu-serum, 1 μg ITS/ml, and 1× antibiotic/antimycotic. The medium is changed after culturing for 3 days at 37° C. under an atmosphere of 5% CO2/95% air. On the following day, cells are rinsed with 100 μl of phosphate-buffered saline (PBS) and incubated with 100 μl of treatment medium containing 1 μM Ang II and a compound at different concentrations in quadruplicate wells at 37° C. for 24 hr. At the end of incubation, 50 μl of medium is withdrawn from each well for measurement of aldosterone production by an SPA using mouse anti-aldosterone monoclonal antibodies.
Measurement of aldosterone activity can also be performed using a 96-well plate format. Each test sample is incubated with 0.02 μCi of D-[1,2,6,7-^3H(N)]aldosterone and 0.3 μg of anti-aldosterone antibody in PBS containing 0.1% Triton X-100, 0.1% bovine serum albumin, and 12% glycerol in a total volume of 200 μl at room temperature for 1 hr. Anti-mouse PVT SPA beads (50 μl) are then added to each well and incubated overnight at room temperature prior to counting in a Microbeta plate counter. The amount of aldosterone in each sample is calculated by comparing with a standard curve generated using known quantities of the hormone.
as §1
The IC50 values for active test compounds are ascertained by a simple linear regression analysis in order to construct inhibition plots without data weighting. The inhibition plot is calculated by fitting a 4-parameter logistic function to the raw data points using the least squares method. The equation of the 4-parameter logistic function is calculated as follows: Y=(d−a)/((1+(x/c)b))+a, where: a=minimum data level, b=gradient, I […], d=maximum data level, x=inhibitor concentration.
The inhibition activity of aldosterone production can also be expressed in percentage inhibition (% inhibition) at a given concentration (e.g. % inhibition at 1 μM), which is the aldosterone level when the cell is treated with the given concentration of a compound of this invention (e.g. concentration of 1 μM) versus the aldosterone excretion when cell is free of the compound of the invention: % inhibition aldosterone production=[(Y−X)/Y]×100 wherein X is the level of aldosterone when the cell is treated with a compound of Formula I; and Y is the level of aldosterone when the cell is free of compound of Formula I.

As to `Cn1c(=O)oc2ccc(-c3cncc(C(N)C(F)(F)F)c3)cc21` (single isomer, unassigned) [Example 29 Enantiomer 2, 5-(5-(1-amino-2,2,2-trifluoroethyl)pyridin-3-yl)-3-methylbenzo[d]oxazol-2(3H)-one], in test [1], the “Cortisol cell secretion (% Inhib. @ 1 μM)” value came to 57%. The half-inhibitory concentration (IC50) in test [2] was 34 nM.

Turning to `Cn1c(=O)oc2ccc(-c3cnccc3C(O)c3ccc(F)cc3)cc21` (single isomer, unassigned) [Example 8 Enantiomer 1, 5-(4-((4-fluorophenyl)(hydroxy)methyl)pyridin-3-yl)-3-methylbenzo[d]oxazol-2(3H)-one], in test [1], the inhibition at 1 µM stood at 77%. Also, the IC50 in test [2] came to 53 nM.

As for `CCCS(=O)(=O)Nc1cncc(-c2ccc3oc(=O)n(C)c3c2)c1` [Example 28, N-(5-(3-methyl-2-oxo-2,3-dihydrobenzo[d]oxazol-5-yl)pyridin-3-yl)propane-1-sulfonamide], the inhibition at 1 µM in test [1] was 30%. Half-maximal inhibition in test [2] (IC50) required 154 nM.

Take `Cn1c(=O)oc2ccc(-c3cncc(CO)c3)cc21` [Example 15, 5-(5-(hydroxymethyl)pyridin-3-yl)-3-methylbenzo[d]oxazol-2(3H)-one]: in test [1], the inhibition at 1 µM is 83%. The IC50 in test [2] came out at 21 nM.

Take `Cn1c(=O)oc2ccc(-c3cncc(C(N)C(F)(F)F)c3)cc21` (single isomer, unassigned) [Example 29 Enantiomer 1, 5-(5-(1-amino-2,2,2-trifluoroethyl)pyridin-3-yl)-3-methylbenzo[d]oxazol-2(3H)-one]: the inhibition at 1 µM in test [1] was 57%. In test [2], this compound had a half-inhibitory concentration (IC50) of 47 nM.
